One data set concerns HPNE cells. Kind of data set: growth of non-transformed pancreatic epithelial cells (WST screen; FIG. 32D). Conditions: WST screen. In kind it is cell-based, human. As to the method:
The initial identification and subsequent characterization of the two novel LXR ligands and their derivative compounds was carried out in screens in three human pancreatic cancer cell and one non-transformed human pancreatic epithelial cell line in three or more replicate experiments for each cell line using the WST tetrazolium salt reduction assays.
(§1) The synthesis and characterization of KD-01-39, a derivative of 3A4, have not been described previously.

The test system of a further data set is KPC tumor cells. As to the kind of experiment: growth of KPC tumor cells from mouse model of PDAC. In kind it is cell-based. The source says: The effects of the ligands and derivatives on the growth of PDAC cells were further validated by cell counting and clonogenic assays.
For data set [1], the system named is LXR ligand-binding domain. As to the kind of experiment: TR-FRET assay of co-activator and co-repressor peptide recruitment. Type of data set: biochemical. As to the method:
(§2) To elucidate mechanisms of inverse agonism by the novel ligands, TR-FRET experiments were conducted to determine the effects of 1E5 and 3A4 on the recruitment of NR co-activators and co-repressors. […] In addition to their functions as inverse agonists, extended treatments with 1E5 and 3A4 also destabilized or decreased LXR proteins.
as §1
(In general: TR-FRET usually uses a lanthanide donor and a delayed reading to cut background.)

The next data set has as its target T1, LXR proteins (Homo sapiens, UniProt P55055).
T1 construct: expression of LXR proteins in different pancreatic cancer cell lines following long-term treatments; endogenous in cells; host or cells: pancreatic cancer cell lines (BxPC-3, MIA PaCa-2, PANC-1 named elsewhere)
As to the kind of experiment: LXR protein levels after long-term treatment of pancreatic cancer cells. Conditions: long-term treatments. In kind it is cell-based. How it is done: as §2

In the next data set the test system is pancreatic cancer cells. Kind of data set: metabolomic analysis using mass spectroscopy in pancreatic cancer cells. In kind it is cell-based, human. How it is done:
To further characterize the mechanisms of action of novel LXR modulators 1E5 and 3A4, metabolomic and transcriptomic analysis of pancreatic cancer cells were conducted in response to treatment. […] PDAC tumors have altered metabolism to support its growth and survival. Previous studies have reported that Kras upregulates the non-canonical use of glutamine to maintain NADPH/NADP+ ratio which in turn regulates redox homeostasis. This unconventional use of glutamine by PDAC cells fuel cancer cell proliferation and survival. Glutamine metabolism in PDAC has two unique functions: 1. Glutamine-derived Glutamate is used for glutathione (GSH) biosynthesis. 2. Glutamine facilitates generation of reducing equivalents in the form of NADPH. In PDAC mitochondria, glutamine is converted to glutamate by glutaminase enzyme (GLS1). This glutamine derived glutamate is conventionally converted to alpha-ketoglutarate by glutamate dehydrogenase (GLUD1) to fuel citric acid cycle. However, in PDAC cells glutamate is converted to aspartate in cytosol which is converted to malic acid and NADPH is produced during this process. This process is essential to maintain redox homeostasis in the tumor. However, this non-canonical use of glutamine is dispensable in non-malignant cells. Therefore, targeting GLS1 to decrease the bioavailability of glutamate to act as source of nitrogen and carbon for the synthesis of amino acids and nucleic acids is a viable strategy to target PDAC tumors. […] The effect of 1E5 is similar to BPTES, a potent GLS1 inhibitor.
(§3) TCA cycle intermediates act as anaplerotic substrate for gluconeogenesis and lipogenesis. […] GOT2 converts glutamine-derived glutamate to alpha-KG. During this process oxaloacetate is converted to aspartate which is required to maintain redox homeostasis. Studies have shown that inhibition of GOT2 in PDAC promotes senescence.
(§4) To determine if 1E5 and 3A4 can induce apoptosis, PDAC cells were treated with the LXR ligands and subjected to pro-apoptotic caspase cleavage analysis. […] Metabolomic profiling following treatments with the two ligands indicated the activation of two distinct cell death mechanisms. Ferroptosis is a non-apoptotic form of cell death which is characterized by accumulation of lipid peroxides by loss of glutathione peroxidase 4 (GPX4) activity. It can also be induced by accumulation of intracellular iron and depletion of reduced glutathione (GSH). GPX4 is an anti-oxidant enzyme involved in conversion of PUFA peroxides to PUFA alcohols. GSH is a critical cofactor of GPX4 and acts as a reducing agent to reduce the lipid peroxides. Therefore, direct inhibition of GPX4 activity or reduction in GSH levels trigger ferroptosis. The second mechanism of inducing ferroptosis is accumulation of polyunsaturated fatty acids (PUFAs) in cells. Studies have shown that PUFAs are the most susceptible lipids to peroxidation.
Expression profiles of ferroptosis genes in RNAseq data following 1E5 treatment were also consistent with its pro-ferroptotic actions. […] Polyamines are amino-acid derived polycationic alkylamines that are required for the growth of cells. SAT1 catalyzes the acetylation of spermidine and spermine to form N-acetylspermidine and N-acetylspermine respectively. […] SAT1 induces ferroptosis by upregulating the peroxidation of PUFA arachidonic acid. Ceramides are sphingolipids consisting of sphingosine and fatty acid acyl chain. Cellular stress leads to upregulation of ceramide synthesis which mediate caspase-dependent apoptosis. Accumulation of ceramides/hexosylceramides in the mitochondria leads to the formation of channel like structures in the mitochondrial outer membrane which increases the permeability of pro-apoptotic proteins such as cytochrome c. ER stress is also known to activate de-novo synthesis of ceramides and induce apoptosis by increasing the flow of Ca ions and upregulating the unfolded protein stress response. […]

Data set [2] relates to PDAC cells. As to the kind of experiment: enzymatic assay of glutamate levels. Type of data set: cell-based, human. As to the method:
To further characterize the mechanisms of action of novel LXR modulators 1E5 and 3A4, metabolomic and transcriptomic analysis of pancreatic cancer cells were conducted in response to treatment. […] PDAC tumors have altered metabolism to support its growth and survival. Previous studies have reported that Kras upregulates the non-canonical use of glutamine to maintain NADPH/NADP+ ratio which in turn regulates redox homeostasis. This unconventional use of glutamine by PDAC cells fuel cancer cell proliferation and survival. Glutamine metabolism in PDAC has two unique functions: 1. Glutamine-derived Glutamate is used for glutathione (GSH) biosynthesis. 2. Glutamine facilitates generation of reducing equivalents in the form of NADPH. In PDAC mitochondria, glutamine is converted to glutamate by glutaminase enzyme (GLS1). This glutamine derived glutamate is conventionally converted to alpha-ketoglutarate by glutamate dehydrogenase (GLUD1) to fuel citric acid cycle. However, in PDAC cells glutamate is converted to aspartate in cytosol which is converted to malic acid and NADPH is produced during this process. This process is essential to maintain redox homeostasis in the tumor. However, this non-canonical use of glutamine is dispensable in non-malignant cells. […]

A further data set has as its system GLS1 and GOT2. As to the kind of experiment: qPCR of genes involved in glutamine metabolism. Conditions: PDAC cells. In kind it is cell-based, human.
From the text: as §3

For data set [3], the system named is PDAC cells. As to the kind of experiment: pro-apoptotic caspase cleavage analysis. Type of data set: cell-based, human. As to the method: as §4
Accumulation of C18 ceramides in the mitochondria leads to the recruitment of auto phagosomes in mitochondria and induces LC3-ceramide dependent lethal mitophagy. […] Darkened circles indicate increases and the size of the circle corresponds to the significance of changes.

The test system of data set [4] is genes involved in ferroptosis. As to the kind of experiment: quantitative PCR of genes involved in ferroptosis. Type of data set: cell-based, human. From the text: Expression profiles of ferroptosis genes in RNAseq data following 1E5 treatment were also consistent with its pro-ferroptotic actions. […] Polyamines are amino-acid derived polycationic alkylamines that are required for the growth of cells. SAT1 catalyzes the acetylation of spermidine and spermine to form N-acetylspermidine and N-acetylspermine respectively. […] SAT1 induces ferroptosis by upregulating the peroxidation of PUFA arachidonic acid. Ceramides are sphingolipids consisting of sphingosine and fatty acid acyl chain. Cellular stress leads to upregulation of ceramide synthesis which mediate caspase-dependent apoptosis. Accumulation of ceramides/hexosylceramides in the mitochondria leads to the formation of channel like structures in the mitochondrial outer membrane which increases the permeability of pro-apoptotic proteins such as cytochrome c. ER stress is also known to activate de-novo synthesis of ceramides and induce apoptosis by increasing the flow of Ca ions and upregulating the unfolded protein stress response.

For a further data set, the system named is LXR-LBD. Kind of data set: differential scanning fluorimetry. In kind it is binding.
From the text: as §1
For orientation: Differential scanning fluorimetry follows unfolding on heating by fluorescence.

SMILES strings stand for the structures.

T1 sequence (P55055 whole entry): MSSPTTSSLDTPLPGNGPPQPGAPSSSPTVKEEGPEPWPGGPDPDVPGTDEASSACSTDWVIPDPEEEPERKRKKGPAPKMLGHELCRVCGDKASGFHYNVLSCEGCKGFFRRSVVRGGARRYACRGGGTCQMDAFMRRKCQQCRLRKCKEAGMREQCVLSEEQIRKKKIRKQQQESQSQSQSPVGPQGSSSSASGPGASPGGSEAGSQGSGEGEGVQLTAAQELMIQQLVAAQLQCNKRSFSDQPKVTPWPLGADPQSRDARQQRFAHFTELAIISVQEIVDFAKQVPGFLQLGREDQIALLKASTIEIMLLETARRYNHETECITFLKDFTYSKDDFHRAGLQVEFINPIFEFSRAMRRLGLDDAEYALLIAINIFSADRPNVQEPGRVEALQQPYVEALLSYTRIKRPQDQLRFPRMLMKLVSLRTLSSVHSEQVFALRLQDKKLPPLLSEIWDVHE

As to `O=c1cc(-c2ccccc2)nc(Nc2cccc(C(F)(F)F)c2)[nH]1` [Compound 1E5, 6-phenyl-2-{[3-(trifluoromethyl)phenyl]amino}-3,4-dihydropyrimidin-4-one], the “activity against non-transformed HPNE cells” value with HPNE cells is “little activity”. Further, in the data set with KPC tumor cells, the “growth of KPC tumor cells” value is “blocked the growth”. In addition, the “co-activator peptide binding to LXR ligand-binding domain” value in [1] (co-activator (D22) peptide) is “did not affect co-activator peptide binding”. In [1] (co-repressor (NCOR and SMRT-ID2) peptides), the “binding of NCOR and SMRT co-repressor peptides” value was “increased the binding”. Moreover, the LXR protein levels entry on LXR proteins is listed as “decreased LXR protein levels”. In addition, in the data set with pancreatic cancer cells, the “glutamate levels (mass spectroscopy)” value is reported as “decreases in glutamate levels”; the glutamine biosynthesis result is recorded as “inhibited glutamine biosynthesis”; the “level of glutathione (GSH)” value was “decreased level of GSH”; the “levels of TCA cycle intermediates (alpha-KG, citrate and fumarate)” value is recorded as “downregulated”. In the data set on pancreatic cancer cells, the “levels of asparagine and aspartate” value is “decreased the levels”. In the data set with pancreatic cancer cells (PANC-1), the “levels of polyamine metabolites” value was “depletion of spermidine and spermine and accumulation of putrescine, N-acetylspermidine and N-acetylspermine”; the “levels of polyunsaturated fatty acids (PUFAs)” value was “increased levels of PUFAs”. The “glutamate levels, combination treatment with BPTES” value with PDAC cells [2] (1E5 plus glutaminase inhibitor BPTES) was “synergistic effects on reducing the glutamate levels”. Further, the “intracellular levels of glutamate” value in the data set with PDAC cells [2] (treated for 48 hours) was “significantly reduced”. Besides, the “expression of GLS1 and GOT2” value in the data set with GLS1 and GOT2 was “downregulated the expression”. Also, in the data set on PDAC cells [3], the pro-apoptotic caspase cleavage entry is given as “did not”. Also, in data set [4], the “expression of GPX4 and other negative regulators of ferroptosis (STMN1, RRM2)” value is “decreased the expression”; the “expression of SAT1” value was “increases the expression”. The “LXR-LBD structure and dye dissociation with increasing temperature” value with LXR-LBD is reported as “disrupted the LBD structure”.

For the origin of these results see patent US20220273658A1, “SMALL MOLECULE LIVER X RECEPTOR MODULATORS AND USES THEREOF” (University of Houston System, priority 2019, published 2022).
